Results published in patent US9067937B2 (priority 2012, dated 2015).
Structures can show the parent of a compound that is named as a salt. Where two headings read alike, the source gives them in different places.

Experiments:
MELK = MELK (Homo sapiens, UniProt Q14680); test: Kinase assay (IMAP fluorescence polarization, FITC-labeled histone H3 peptide); type: biochemical; conditions: 50 micro-M ATP
Procedure, shortened: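 Kinase (0.8 ng/μL) reacted with 100 nM FITC-histone H3 peptide and 50 μM ATP in 20 mM HEPES, 0.3 mM MgCl2, 2 mM DTT, 0.01% Tween-20, pH 7.4, for 1 hour at room temperature. Phosphorylation read by IMAP fluorescence polarization after adding binding solution; IC50 from four-parameter fit.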

T47D cells = test: Cell-based assay, anti-proliferative activity (Cell Counting Kit-8, 72 hours); design: species or system human; conditions: read-out: IC50 (μM) (T47D)
Procedure, shortened: (§1)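 Cells seeded at 2,000–3,000 cells/well and exposed to candidate MELK inhibitors for 72 hours; growth measured with Cell Counting Kit-8. IC50 values calculated from the growth read-out.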

22Rv1 cells = test: as above; design: species or system human; conditions: read-out: IC50 (μM) (22Rvl)
Procedure, shortened: as §1

A549 cells = test: as above; design: species or system human; conditions: read-out: IC50 (μM) (A549)
Procedure, shortened: as §1

DU4475 cells = test: as above; design: species or system human; conditions: read-out: IC50 (μM) (DU4475)
Procedure, shortened: as §1

HT1197 cells = test: Cell-based assay, anti-proliferative activity, MELK-negative control (Cell Counting Kit-8, 72 hours); design: species or system human; conditions: read-out: IC50 (μM) (HTll97)
Protocol: 100 micro-L of cell suspension was seeded onto 96-well microtiter plate (ViewPlate-96FTC, PerkinElmer). The initial cell concentration of 22Rv1, T47D, A549, DU4475, and HT1197 were 3,000 cells/well, 2,000 cells/well and 2,500 cells/well, respectively. Cellular growth was determined using Cell Counting Kit-8 (DOJINDO) at 72 hours after the exposure of the candidate inhibitors. […] Accurate IC50 values were calculated as described previously.

Chain of MELK (Q14680 whole entry, looked up): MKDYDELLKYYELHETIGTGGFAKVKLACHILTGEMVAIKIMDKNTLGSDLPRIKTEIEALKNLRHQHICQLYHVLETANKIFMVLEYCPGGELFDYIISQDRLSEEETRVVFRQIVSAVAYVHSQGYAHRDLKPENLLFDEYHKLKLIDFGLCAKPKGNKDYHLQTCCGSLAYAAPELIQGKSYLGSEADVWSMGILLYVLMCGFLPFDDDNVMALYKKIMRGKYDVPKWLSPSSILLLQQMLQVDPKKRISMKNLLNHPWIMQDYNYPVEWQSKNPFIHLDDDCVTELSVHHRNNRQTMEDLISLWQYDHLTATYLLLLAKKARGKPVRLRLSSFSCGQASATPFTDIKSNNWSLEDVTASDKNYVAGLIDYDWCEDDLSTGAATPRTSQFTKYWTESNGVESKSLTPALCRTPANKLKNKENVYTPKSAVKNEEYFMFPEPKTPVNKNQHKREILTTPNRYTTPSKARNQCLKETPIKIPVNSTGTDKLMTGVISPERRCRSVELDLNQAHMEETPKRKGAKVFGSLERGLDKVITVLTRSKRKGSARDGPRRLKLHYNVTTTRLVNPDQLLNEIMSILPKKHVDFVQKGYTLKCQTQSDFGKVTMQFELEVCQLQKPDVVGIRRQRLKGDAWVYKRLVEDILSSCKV

Molecule | IC50 (MELK) [µM] | IC50 (T47D cells; Homo sapiens, T47D, 72 h) [µM] | IC50 (22Rv1 cells; Homo sapiens, 22Rv1, 72 h) [µM] | IC50 (A549 cells; Homo sapiens, A549, 72 h) [µM] | IC50 (DU4475 cells; Homo sapiens, DU-4475, 72 h) [µM] | IC50 (HT1197 cells; Homo sapiens, HT1197, 72 h) [µM] | IC50 (T47D cells; T47D cells, 72 hours) [µM] | IC50 (22Rv1 cells; 22Rv1 cells, 72 hours) [µM] | IC50 (A549 cells; A549 cells, 72 hours) [µM] | IC50 (DU4475 cells; DU4475 cells, 72 hours) [µM] | IC50 (HT1197 cells; HT1197 cells (MELK-negative control), 72 hours) [µM]
CC(=O)c1cnc2ccc(-c3cc(C)c(O)c(C)c3)nc2c1N[C@H]1CC[C@H](CN(C)C)CC1 [Example 59, 1-(4-{trans-4-[(Dimethylamino)methyl]-cyclohexylamino}-6-(4-hydroxy-3,5-dimethylphenyl)-1,5-naphthyridin-3-yl) ethanone dihydrochloride] | 0.0047 | 0.39 | 2.5 | 0.23 | 0.21 | 7.5 | – | – | – | – | –
CC(=O)c1cnc2ccc(-c3cnc(C#N)nc3)nc2c1N[C@H]1CC[C@H](CN(C)C)CC1 [Example 57, 5-(7-Acetyl-8-{trans-4-[(dimethylamino)methyl]cyclohexylamino}-1,5-naphthyridin-2-yl)pyrimidine-2-carbonitrile] | 0.0012 | 0.089 | 0.24 | 0.56 | 0.22 | 0.38 | – | – | – | – | –
COc1cc(-c2ccc3ncc(C(C)=O)c(Nc4ccc(CCN(C)C)cc4)c3n2)cc(Cl)c1O [Example 31, 1-(6-(3-Chloro-4-hydroxy-5-methoxyphenyl)-4-(4-(2-(dimethyl-amino)ethyl)phenylamino)-1,5-naphthyridin-3-yl) ethanone dihydrochloride] | 0.0037 | 0.41 | 0.65 | 0.31 | 0.19 | 4.4 | – | – | – | – | –
CC(=O)c1cnc2ccc(-c3cc(F)c(O)c(Cl)c3)nc2c1N[C@H]1CC[C@H](N)CC1 [Example 67, 1-{4-[trans-(4-Aminocyclohexyl)amino]-6-(3-chloro-5-fluoro-4-hydroxyphenyl)-1,5-naphthyridin-3-yl}ethanone dihydrochloride] | 0.0012 | 0.0019 | 0.0061 | 0.022 | 0.0012 | 2.8 | – | – | – | – | –
N[C@H]1CCCN(c2ccc(Nc3c(C(=O)C4CCC4)cnc4ccc(-c5cc(F)c(O)c(Cl)c5)nc34)cn2)C1 [Example 210, (S)-(4-((6-(3-aminopiperidin-1-yl)pyridin-3-yl)amino)-6-(3-chloro-5-fluoro-4-hydroxyphenyl)-1,5-naphthyridin-3-yl)(cyclobutyl)methanone dihydrochloride] | 0.0014 | 0.0093 | 0.017 | 0.042 | 0.022 | 1.4 | – | – | – | – | –
(S)-(4-{[6-(3-aminopiperidin-1- yl)pyridin-3-yl]amino}-6-(3-chloro-5- fluoro-4-hydroxyphenyl)-1,5- naphthyridin-3- yl)(cyclobutyl)methanone [Example 213] | 0.0011 | – | – | – | – | – | 0.0043 | 0.0071 | 0.029 | 0.003 | 1.7
CC(=O)c1cnc2ccc(-c3cc(Cl)c(O)c(Cl)c3)nc2c1N[C@H]1CC[C@H](N)CC1 [Example 66, 1-{4-[trans-(4-Aminocyclohexyl)amino]-6-(3,5-dichloro-4-hydroxyphenyl)-1,5-naphthyridin-3-yl}-ethanone dihydrochloride] | 0.0018 | 0.0018 | 0.0045 | 0.016 | 0.001 | 10 | – | – | – | – | –
CC(=O)c1cnc2ccc(-c3cc(Cl)c(O)c(Cl)c3)nc2c1Nc1ccc(N2CCCC(N)C2)nc1 (stereo not drawn) [Example 64, 1-(4-{[6-(3-Aminopiperidin-1-yl)pyridin-3-yl]amino}-6-(3,5-dichloro-4-hydroxyphenyl)-1,5-naphthyridin-3-yl)ethanone trihydrochloride] | 0.0012 | 0.0064 | 0.016 | 0.07 | 0.016 | 2.9 | – | – | – | – | –
CC(=O)c1cnc2ccc(-c3cc(Cl)c(O)c(Cl)c3)nc2c1N[C@H]1CC[C@H](CN2CCN(C)CC2)CC1 [Example 63, 1-(6-(3,5-Dichloro-4-hydroxyphenyl)-4-{trans-4-[(4-methylpiperazin-1-yl)methyl]cyclohexyl-amino}-1,5-naphthyridin-3-yl)ethanone trihydrochloride] | 0.0008 | 0.016 | 0.025 | 0.02 | 0.0092 | 0.13 | – | – | – | – | –
CN(C)C[C@H]1CC[C@H](Nc2c(C(=O)C3CC3)cnc3ccc(-c4cc(F)c(O)c(Cl)c4)nc23)CC1 [Example 5, (6-(3-Chloro-5-fluoro-4-hydroxyphenyl)-4-{trans-4-[(dimethylamino)methyl]cyclohexyl-amino}-1,5-naphthyridin-3-yl)(cyclopropyl)methanone dihydrochloride] | 0.0008 | 0.0029 | 0.0057 | 0.0061 | 0.003 | 0.018 | – | – | – | – | –
CC(=O)c1cnc2ccc(-c3cc(Cl)c(O)c(Cl)c3)nc2c1Nc1cnn(C2CCN(C)CC2)c1 [Example 33, 1-[6-(3,5-Dichloro-4-hydroxyphenyl)-4-[1-(1-methylpiperidin-4-yl)-1H-pyrazol-4-ylamino]-1,5-naphthyridin-3-yl]ethanone dihydrochloride] | 0.0078 | 0.35 | 0.64 | 0.93 | 0.34 | 100 | – | – | – | – | –
CC(=O)c1cnc2ccc(-c3cc(F)c(O)c(Cl)c3)nc2c1N[C@H]1CC[C@H](CN(C)CCO)CC1 [Example 49, 1-[6-(3-Chloro-5-fluoro-4-hydroxyphenyl)-4-(trans-4-{[(2-hydroxyethyl)(methyl)amino]-methyl}cyclohexylamino)-1,5-naphthyridin-3-yl]ethanone dihydrochloride] | 0.001 | 0.0039 | 0.0087 | 0.021 | 0.0039 | 0.49 | – | – | – | – | –
CNC1CCN(c2ccc(Nc3c(C(C)=O)cnc4ccc(-c5cc(Cl)c(O)c(Cl)c5)nc34)cn2)C1 (stereo not drawn) [Example 53, 1-(6-(3,5-Dichloro-4-hydroxyphenyl)-4-{6-[3-(methylamino)pyrrolidin-1-y]pyridin-3-ylamino}-1,5-naphthyridin-3-yl)ethanone trihydrochloride] | 0.0015 | 0.042 | 0.078 | 0.2 | 0.071 | 100 | – | – | – | – | –
CN(C)C[C@H]1CC[C@H](Nc2c(C(=O)CO)cnc3ccc(-c4cc(F)c(O)c(Cl)c4)nc23)CC1 [Example 204, 1-[6-(3-chloro-5-fluoro-4-hydroxyphenyl)-4-({trans-4-[(dimethylamino)methyl]cyclohexyl}amino)-1,5-naphthyridin-3-yl)]-2-hydroxyethanone dihydrochloride] | 0.0013 | 0.014 | 0.02 | 0.058 | 0.013 | 10 | – | – | – | – | –
CC(=O)c1cnc2ccc(-c3cc(F)c(O)c(Cl)c3)nc2c1Nc1ccc(N2CCC(N(C)C)C2)nc1 (stereo not drawn) [Example 52, 1-[6-(3-Chloro-5-fluoro-4-hydroxyphenyl)-4-{6-[3-(dimethylamino)pyrrolidin-1-yl]pyridin-3-ylamino}-1,5-naphthyridin-3-yl]ethanone trihydrochloride] | 0.027 | 0.18 | 0.44 | 0.39 | 0.4 | 2 | – | – | – | – | –
